# Laboratory results taken from the OPERA property sets (Mansouri et al. 2018).
# Conditions: not given
row,SMILES,logP
1,CCOP(=O)(OCC)SCS(=O)(=O)CC,1.98

# Same assay, conditions: 20 °C
row,SMILES,solubility [µM]
1,COP(=S)(OC)Oc1ccc([N+](=O)[O-])cc1,143
2,COc1nn(CSP(=S)(OC)OC)c(=O)s1,619
3,COP(=S)(OC)SCN1C(=O)c2ccccc2C1=O,76.9
4,CCOC(=O)CC(SP(=S)(OC)OC)C(=O)OCC (configuration not stated),433
5,CNC(=O)Oc1ccc(N(C)C)c(C)c1,4390
6,CNC(=O)Oc1ccccc1OC(C)C,8890
7,COP(=S)(OC)Oc1ccc([N+](=O)[O-])cc1Cl,49.4
8,COP(=S)(OC)Oc1ccc(SC)c(C)c1,26.9
9,CCOP(=O)(OCC)OC(=CCl)c1ccc(Cl)cc1Cl,345
10,COP(=S)(OC)SCSc1ccc(Cl)cc1,5.08
11,CCOP(=S)(OCC)SCn1nnc2ccccc2c1=O,30.4
